# Bridge positions count the residues as written; N and C are the ends. Square brackets hold non-standard residues; d marks the D form. Peptide text beside a SMILES is read from it. * marks the point of attachment. ξ: configuration not given here. Phe(4-COOH) = N[C@@H](Cc1ccc(C(=O)O)cc1)C(=O)O; Bip = N[C@@H](Cc1ccc(-c2ccccc2)cc1)C(=O)O; Phe(3-CN) = N#Cc1cccc(C[C@H](N)C(=O)O)c1; Phe(3-Me) = Cc1cccc(C[C@H](N)C(=O)O)c1; Val(3-OH) = CC(C)(O)[C@H](N)C(=O)O; NMeF = CN[C@@H](Cc1ccccc1)C(=O)O; aIle = CC[C@@H](C)[C@H](N)C(=O)O; 4Pal = N[C@@H](Cc1ccncc1)C(=O)O; 2Thi = N[C@@H](Cc1cccs1)C(=O)O; Cha = N[C@@H](CC1CCCCC1)C(=O)O; Cit = NC(=O)NCCC[C@H](N)C(=O)O; Ile(3ξ) = CCC(C)[C@H](N)C(=O)O; Thr(3ξ) = CC(O)[C@H](N)C(=O)O; Carboxymethyl = O=C(O)C*; NMeA = CN[C@@H](C)C(=O)O; Dab = NCC[C@H](N)C(=O)O; ξV = CC(C)C(N)C(=O)O
# Target: T1, PE-labeled human PD-L1-Ig binding to Jurkat cell line over-expressing human PD-1 (Jurkat-PD-1) (Homo sapiens, UniProt Q15116)
# T1 construct: expressed in transfected cells; host or cells: Jurkat
# T1 sequence (Q15116 25-288): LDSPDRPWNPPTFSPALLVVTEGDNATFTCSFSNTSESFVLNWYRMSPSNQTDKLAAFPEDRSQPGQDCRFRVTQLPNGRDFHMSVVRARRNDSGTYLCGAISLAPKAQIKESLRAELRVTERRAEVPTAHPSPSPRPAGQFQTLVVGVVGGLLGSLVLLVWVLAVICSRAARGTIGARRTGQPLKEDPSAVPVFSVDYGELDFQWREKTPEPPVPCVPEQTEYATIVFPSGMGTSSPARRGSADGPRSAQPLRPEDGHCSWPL
# Test: Jurkat-PD-1 Cell Binding High-Content Screening Assay (CBA): Method 1
# Conditions: Jurkat-hPD-1 cells, PE-labeled PD-L1-Ig 20 nM final; read-out: Jurkat HPDL1 PD1 IC50 (uM) (Method 1)
row,SMILES,IC50 [µM]
1,Cc1cccc(C[C@@H]2NC(=O)[C@H](CC(=O)O)NC(=O)[C@H](Cc3ccc(OCC(=O)O)cc3)NC(=O)[C@H](Cc3ccc(OCC(=O)O)cc3)NC(=O)CSC[C@@H](C(N)=O)NC(=O)[C@H](CC(=O)O)NC(=O)[C@H](C(C)C)NC(=O)[C@H](CC3CCCCC3)NC(=O)[C@H](CCN)NC(=O)[C@@H](CC(C)C)NC(=O)[C@H](C)N(C)C(=O)[C@H](Cc3ccc(OCC(=O)O)cc3)NC(=O)[C@H](Cc3ccc(-c4ccccc4)cc3)NC(=O)[C@H](Cc3ccc(OCC(=O)O)cc3)NC2=O)c1 [Compound 1654] ({CH2CO}-Y(Carboxymethyl)Y(Carboxymethyl)D[Phe(3-Me)]Y(Carboxymethyl)[Bip]Y(Carboxymethyl)[NMeA][dL][Dab][Cha]VDC-NH2; thioether N-14),0.08
2,CC[C@H](C)[C@@H]1NC(=O)[C@H](Cc2ccc(-c3ccccc3)cc2)NC(=O)[C@H](C(C)C)NC(=O)[C@H](Cc2c[nH]c3ccccc23)NC(=O)[C@H](CC(=O)O)NC(=O)[C@H](Cc2cccc(C#N)c2)NC(=O)[C@H](Cc2ccncc2)NC(=O)CSC[C@@H](C(=O)N[C@@H](C)C(N)=O)NC(=O)[C@H]([C@@H](C)O)NC(=O)[C@H](C(C)C)NC(=O)[C@H](CC(C)C)NC(=O)[C@H](CCN)NC(=O)[C@@H](CC(C)C)NC(=O)[C@H](C)N(C)C1=O [Compound 1407] ({CH2CO}-[4Pal][Phe(3-CN)]DWV[Bip]I[NMeA][dL][Dab]LVTCA-NH2; thioether N-14),0.04
3,CC(C)C[C@@H]1NC(=O)[C@H](CCN)NC(=O)[C@@H](CC(C)C)NC(=O)[C@H](C)N(C)C(=O)[C@H](CCCNC(N)=O)NC(=O)[C@H](Cc2ccc(-c3ccccc3)cc2)NC(=O)[C@H](C(C)C)NC(=O)[C@H](Cc2c[nH]c3ccccc23)NC(=O)[C@H](CC(=O)O)NC(=O)[C@H](Cc2ccc(O)cc2)NC(=O)[C@H](CCCNC(=N)N)NC(=O)CSC[C@@H](C(=O)N[C@@H](C)C(N)=O)NC(=O)[C@H]([C@@H](C)O)NC(=O)[C@H](C(C)C)NC1=O [Compound 1351] ({CH2CO}-RYDWV[Bip][Cit][NMeA][dL][Dab]LVTCA-NH2; thioether N-14),0.05
4,CC(C)C[C@@H]1NC(=O)[C@H](CCN)NC(=O)[C@@H](CC(C)C)NC(=O)[C@H](C)N(C)C(=O)[C@H](CCCNC(=N)N)NC(=O)[C@H](Cc2ccc(-c3ccccc3)cc2)NC(=O)[C@H](C(C)C)NC(=O)[C@H](Cc2c[nH]c3ccccc23)NC(=O)[C@H](CC(=O)O)NC(=O)[C@H](Cc2ccc(OCC(=O)O)cc2)NC(=O)[C@H](CC(N)=O)NC(=O)CSC[C@@H](C(=O)N[C@@H](C)C(N)=O)NC(=O)[C@H]([C@@H](C)O)NC(=O)[C@H](C(C)C)NC1=O [Compound 1138] ({CH2CO}-NY(Carboxymethyl)DWV[Bip]R[NMeA][dL][Dab]LVTCA-NH2; thioether N-14),0.07
5,CCC(C)[C@@H]1NC(=O)[C@H](Cc2ccc(-c3ccccc3)cc2)NC(=O)[C@H](Cc2cccc(C)c2)NC(=O)[C@H](Cc2c[nH]c3ccccc23)NC(=O)[C@H](CC(=O)O)NC(=O)[C@H](Cc2ccc(OCC(=O)O)cc2)NC(=O)[C@H](C(C)O)NC(=O)CSC[C@@H](C(=O)N[C@@H](CC(N)=O)C(=O)O)NC(=O)[C@H](CO)NC(=O)[C@H](C(C)C)NC(=O)[C@H](CC(C)C)NC(=O)[C@H](CCN)NC(=O)[C@@H](CC(C)C)NC(=O)[C@H](C)N(C)C1=O (stereo partly drawn) [Compound 2222] ({CH2CO}-[Thr(3ξ)]Y(Carboxymethyl)DW[Phe(3-Me)][Bip][Ile(3ξ)][NMeA][dL][Dab]LVSCN-OH; thioether N-14),0.29
6,CC[C@H](C)[C@@H]1NC(=O)[C@H](Cc2ccc(-c3ccccc3)cc2)NC(=O)[C@H](C(C)C)NC(=O)[C@H](Cc2c[nH]c3ccccc23)NC(=O)[C@H](CC(=O)O)NC(=O)[C@H](Cc2ccc(O)cc2)NC(=O)[C@H](Cc2ccc(OCC(=O)O)cc2)NC(=O)CSC[C@@H](C(=O)N[C@@H](C)C(N)=O)NC(=O)[C@H]([C@@H](C)O)NC(=O)[C@H](C(C)C)NC(=O)[C@H](CC2CCCCC2)NC(=O)[C@H](CCCNC(=N)N)NC(=O)[C@@H](CC(C)C)NC(=O)[C@H](C)N(C)C1=O [Compound 1493] ({CH2CO}-Y(Carboxymethyl)YDWV[Bip]I[NMeA][dL]R[Cha]VTCA-NH2; thioether N-14),0.03
7,CC(C)C[C@@H]1NC(=O)[C@H](CCCNC(=N)N)NC(=O)[C@@H](CC(C)C)NC(=O)[C@H](C)N(C)C(=O)[C@H](CCCNC(N)=O)NC(=O)[C@H](Cc2ccc(-c3ccccc3)cc2)NC(=O)[C@H](C(C)C)NC(=O)[C@H](Cc2c[nH]c3ccccc23)NC(=O)[C@H](CC(=O)O)NC(=O)[C@H](Cc2ccc(O)cc2)NC(=O)[C@H](CC(N)=O)NC(=O)CSC[C@@H](C(=O)N[C@@H](C)C(N)=O)NC(=O)[C@H](CO)NC(=O)[C@H](C(C)C)NC1=O [Compound 1227] ({CH2CO}-NYDWV[Bip][Cit][NMeA][dL]RLVSCA-NH2; thioether N-14),0.04
8,CC[C@H](C)[C@@H]1NC(=O)[C@H](Cc2ccc(-c3ccccc3)cc2)NC(=O)[C@H](C(C)C)NC(=O)[C@H](Cc2cccc(C)c2)NC(=O)[C@H](CC(=O)O)NC(=O)[C@H](Cc2ccc(O)cc2)NC(=O)[C@H](CC(N)=O)NC(=O)CSC[C@@H](C(=O)N[C@H](C)C(N)=O)NC(=O)[C@H]([C@@H](C)O)NC(=O)[C@H](C(C)(C)O)NC(=O)[C@H](CC2CCCCC2)NC(=O)[C@H](CCN)NC(=O)[C@@H](CC(C)C)NC(=O)[C@H](C)N(C)C1=O [Compound 1690] ({CH2CO}-NYD[Phe(3-Me)]V[Bip]I[NMeA][dL][Dab][Cha][Val(3-OH)]TC[dA]-NH2; thioether N-14),0.01
9,CC[C@H](C)[C@@H]1NC(=O)[C@H](Cc2ccc(-c3ccccc3)cc2)NC(=O)[C@H](C(C)(C)O)NC(=O)[C@H](Cc2cccc(C)c2)NC(=O)[C@H](CC(=O)O)NC(=O)[C@H](Cc2ccc(O)cc2)NC(=O)[C@H](CC(N)=O)NC(=O)CSC[C@@H](C(=O)N[C@@H](CCN)C(N)=O)NC(=O)[C@H]([C@@H](C)O)NC(=O)[C@H](C(C)C)NC(=O)[C@H](CC2CCCCC2)NC(=O)[C@H](CCN)NC(=O)[C@@H](CC(C)C)NC(=O)[C@H](C)N(C)C1=O [Compound 1691] ({CH2CO}-NYD[Phe(3-Me)][Val(3-OH)][Bip]I[NMeA][dL][Dab][Cha]VTC[Dab]-NH2; thioether N-14),0.02
10,CCC(C)[C@@H]1NC(=O)[C@H](Cc2ccc(-c3ccccc3)cc2)NC(=O)[C@H](C(C)C)NC(=O)[C@H](Cc2c[nH]c3ccccc23)NC(=O)[C@H](CC(=O)O)NC(=O)[C@H](Cc2ccc(O)cc2)NC(=O)[C@H](Cc2cccs2)NC(=O)CSC[C@@H](C(=O)N[C@@H](CCCNC(=N)N)C(N)=O)NC(=O)[C@H](C(C)O)NC(=O)[C@H](C(C)(C)O)NC(=O)[C@H](CC2CCCCC2)NC(=O)[C@H](CC(N)=O)NC(=O)[C@@H](CC(C)C)NC(=O)[C@H](C)N(C)C1=O (stereo partly drawn) [Compound 2172] ({CH2CO}-[2Thi]YDWV[Bip][Ile(3ξ)][NMeA][dL]N[Cha][Val(3-OH)][Thr(3ξ)]CR-NH2; thioether N-14),0.08
11,Cc1cccc(C[C@@H]2NC(=O)[C@H](CC(=O)O)NC(=O)[C@H](Cc3ccc(OCC(=O)O)cc3)NC(=O)[C@H](CC(N)=O)NC(=O)CSC[C@@H](C(N)=O)NC(=O)[C@H](CCC(N)=O)NC(=O)[C@H](C(C)C)NC(=O)[C@H](CC3CCCCC3)NC(=O)[C@H](CCN)NC(=O)[C@@H](CC(C)C)NC(=O)[C@H](C)N(C)C(=O)[C@H](Cc3ccc(OCC(=O)O)cc3)NC(=O)[C@H](Cc3ccc(-c4ccccc4)cc3)NC(=O)[C@H](Cc3ccc(OCC(=O)O)cc3)NC2=O)c1 [Compound 1665] ({CH2CO}-NY(Carboxymethyl)D[Phe(3-Me)]Y(Carboxymethyl)[Bip]Y(Carboxymethyl)[NMeA][dL][Dab][Cha]VQC-NH2; thioether N-14),0.09
12,CC[C@H](C)[C@@H]1NC(=O)[C@H](Cc2ccc(-c3ccccc3)cc2)NC(=O)[C@H](C(C)C)NC(=O)[C@H](Cc2c[nH]c3ccccc23)NC(=O)[C@H](CC(=O)O)NC(=O)[C@H](Cc2ccc(OCC(=O)O)cc2)NC(=O)[C@H](Cc2ccncc2)NC(=O)CSC[C@@H](C(=O)N[C@@H](C)C(N)=O)NC(=O)[C@H]([C@@H](C)O)NC(=O)[C@H](C(C)C)NC(=O)[C@H](CC(C)C)NC(=O)[C@H](CCN)NC(=O)[C@@H](CC(C)C)NC(=O)[C@H](C)N(C)C1=O [Compound 1413] ({CH2CO}-[4Pal]Y(Carboxymethyl)DWV[Bip]I[NMeA][dL][Dab]LVTCA-NH2; thioether N-14),0.03
13,CC[C@@H](C)[C@@H]1NC(=O)[C@H](Cc2ccc(-c3ccccc3)cc2)NC(=O)[C@H](CC(C)C)NC(=O)[C@H](Cc2c[nH]c3ccccc23)NC(=O)[C@H](CC(=O)O)NC(=O)[C@H](Cc2ccc(C(=O)O)cc2)NC(=O)[C@H](Cc2ccc(OCC(=O)O)cc2)NC(=O)CSC[C@@H](C(=O)N[C@@H](CCCCN)C(N)=O)NC(=O)[C@H](CO)NC(=O)C(C(C)C)NC(=O)[C@H](CC(C)C)NC(=O)[C@H](CC(N)=O)NC(=O)[C@@H](CC(C)C)NC(=O)[C@H](C)N(C)C1=O (stereo partly drawn) [Compound 2100] ({CH2CO}-Y(Carboxymethyl)[Phe(4-COOH)]DWL[Bip][aIle][NMeA][dL]NL[ξV]SCK-NH2; thioether N-14),0.03
14,Cc1cccc(C[C@@H]2NC(=O)[C@H](CC(=O)O)NC(=O)[C@H](Cc3ccc(OCC(=O)O)cc3)NC(=O)[C@H](Cc3ccccc3)N(C)C(=O)CSC[C@@H](C(=O)N[C@@H](CCN)C(N)=O)NC(=O)[C@H](CO)NC(=O)[C@H](C(C)C)NC(=O)[C@H](CC3CCCCC3)NC(=O)[C@H](CCN)NC(=O)[C@@H](CC(C)C)NC(=O)[C@H](C)N(C)C(=O)[C@H](Cc3ccc(OCC(=O)O)cc3)NC(=O)[C@H](Cc3ccc(-c4ccccc4)cc3)NC(=O)[C@H](Cc3ccc(OCC(=O)O)cc3)NC2=O)c1 [Compound 1861] ({CH2CO}-[NMeF]Y(Carboxymethyl)D[Phe(3-Me)]Y(Carboxymethyl)[Bip]Y(Carboxymethyl)[NMeA][dL][Dab][Cha]VSC[Dab]-NH2; thioether N-14),0.1
